Columns and labels:
[1] = system: ASCs specific for chromatin; test: Anti-chromatin antibody secreting B-cell Elispot, NZM spleen; format: in vivo, mouse; details: NZM mice
Description: Age mated, female, NZM or NZW/LacJ, mice were matured for the study of lupus nephritis for a total of 7 months or 210 days at which time urine was collected for proteinuria detection. Mice with 0.5-1.0 mg/ml of urine protein as determined by an optical density-based total protein precipitation assay and cross-checked for 30-300 mg/dl of protein as determined by a stick assay were considered proteinuria positive and selected for study entry. Groups were normalized to contain a Gaussian distribution of proteinuria positive animals (i.e., ⅓ low proteinuria, ⅓ medium, ⅓ high) then randomized between groups before ear marking and taking baseline measures including urine and serum collections. A total of five mice from the total population were randomly selected for baseline kidney histology evaluation. Treatments and tests for each group are as described in FIG. 12. Briefly, with a minimum of 10 mice per group, COMPOUND A was administered at 100 mg/kg or 55 mg/kg, both twice a day and orally. […] Vehicle included 3% DMSO, 10% Solutol and 87% PBS. […] End-stage lupus nephritis was evaluated by histopathology and scored by a board certified pathologist for the assessment of total renal damage in diseased animals using the scoring method described by Smith et al (Smith, Dong et al. 2007). […] Day-98 or “end of treatment/study” represents 310 days of age for the NZM animals.

plasma cells = test: Spleen plasma cells by flow cytometry in NZM mice; format: in vivo, mouse
Description: Antibodies used for flow cytometry consisted of anti-mouse CD138-APC (eBioscience, San Diego, Calif.), anti-mouse CD19-FITC (eBioscience, San Diego, Calif.), anti-mouse CD38-PE (eBioscience, San Diego, Calif.) and anti-mouse CD45R/B220-Cyc (eBioscience, San Diego, Calif.), Rat IgG1-APC isotype control (eBioscience, San Diego, Calif.), Rat IgG2a-PE isotype control (eBioscience, San Diego, Calif.). All samples were analyzed using an Accuri C6 Flow Cytometer. Complete media was used for all experiments involving the ex vivo culture of splenocytes for all Elispot experiments. Complete media consisted of RPMI1640 (Cellgro, Manassas, Va.), plus 1% Pen-Strep (Cellgro, Manassas, Va.), 1% L-Gln (Cellgro, Manassas, Va.), 1% NEAA (Cellgro, Manassas, Va.), β-ME (Cellgro, Manassas, Va.), plus 10% FBS (Cellgro, Manassas, Va.).
Washed, RBC-lysed splenocytes were stained for plasma cell markers as previously used in published reports (Neubert, Meister et al. 2008). As used herein the term “plasma cell” will refer to the following immunophenotype definition: Plasma cells were defined as live CD19-negative, CD45R/B220-negative, CD138-positive, CD38-positive events for the MRL/lpr model. A total of 200,000-500,000 events were collected per tube/sample. […]
Age mated, female, NZM or NZW/LacJ, mice were matured for the study of lupus nephritis for a total of 7 months or 210 days at which time urine was collected for proteinuria detection. Mice with 0.5-1.0 mg/ml of urine protein as determined by an optical density-based total protein precipitation assay and cross-checked for 30-300 mg/dl of protein as determined by a stick assay were considered proteinuria positive and selected for study entry. […] End-stage lupus nephritis was evaluated by histopathology and scored by a board certified pathologist for the assessment of total renal damage in diseased animals using the scoring method described by Smith et al (Smith, Dong et al. 2007). […]

[2] = system: anti-Smith antigen antibodies; test: Serum anti-Smith antigen ANA ELISA in NZM mice; format: in vivo, mouse; details: p<0.05
Text: The measurement of anti-dsDNA and anti-Smith antigen antibodies was done by an in-house generated custom ELISA assay. Chromatin coated plates were purchased from Inova Diagnostics, Inc. Purified bovine thymus dsDNA (Sigma, St. Louis, […].) or purified bovine Smith antigen (GenWay, San Diego, Calif.) were used as coating antigen for the detection of anti-dsDNA and anti-Smith Ag antibodies respectively. Coated plates were washed with Borate Sulfate Saline (BSS) and blocked with BSS containing 1% Bovine Serum Albumin (BSA) and 0.1% Tween-20 detergent. Standard curves were generated using mouse anti-chromatin antibody (Sigma, 2B1) or 25 week old MRL/lpr serum. Mouse anti-dsDNA antibody (Abcam, Cambridge, Mass.), or mouse anti-Smith antigen antibody (Abcam) were used as standards for each assay. […] Developed plates were read using a Victor-X4 spectrophotometer reading at […] with a reference wavelength of 570 nm. […]
Age mated, female, NZM or NZW/LacJ, mice were matured for the study of lupus nephritis for a total of 7 months or 210 days at which time urine was collected for proteinuria detection. Mice with 0.5-1.0 mg/ml of urine protein as determined by an optical density-based total protein precipitation assay and cross-checked for 30-300 mg/dl of protein as determined by a stick assay were considered proteinuria positive and selected for study entry. […]

[3] = mouse, in vivo
Text: (§1) MRL/lpr mice were first randomized, initial bleeds collected, and body weights recorded for baseline measurements (FIG. 1). All mice were individually ear tagged and were monitored throughout the entire experiment (e.g., “Group#-Cage letter-Mouse#”, so “3B5”=Group 3 (G3), cage B, mouse#5). Mice were age-matched and treatment started at 6-8 weeks of age. Cheek bleeds and urine collection continued weekly throughout the experiment. Mice were individually tracked for several parameters including cytokine and ANA levels, proteinuria, body mass, lymphomegaly, general health, and mortality. All parameters were evaluated bi-monthly except mortality which was monitored daily. All groups consisted of a minimum of at least 10-12 mice per group. Ex vivo experiments included flow cytometry analyses for plasma cells, serum complement C3 and ANA levels; urine protein and leukocytes, serum cytokine profiling, renal histo pathology, and determination of compound levels (pharmacokinetics (PK)) in the spleen, kidney and plasma. Mice were tracked on an individual basis. For all data, mice were grouped into populations and data graphed as mean±SEM. Bi-monthly observations and data collected were recorded for each group, except mortality which was performed daily. End-stage readouts were analyzed as described in the MATERIALS AND METHODS section (above) and in FIG. 1. […]

C3 = test: Serum complement C3 in MRL/lpr mice; format: in vivo, mouse
Text: as §1

Row | SMILES | ASCs specific for chromatin, decrease ([1]; COMPOUND A 55 mg/kg) | ASCs specific for chromatin, decrease ([1]; COMPOUND A 100 mg/kg) | spleen plasma cells decrease compared to vehicle (plasma cells; COMPOUND A 55 mg/kg) | spleen plasma cells decrease compared to vehicle (plasma cells; COMPOUND A 100 mg/kg) | anti-smith antigen ANAs ([2]; COMPOUND A treatment) | overt toxicity [3] | serum C3 increase over vehicle (C3; 55 mg/kg p.o. b.i.d.) | serum C3 increase over vehicle (C3; 100 mg/kg p.o. b.i.d.) | ASCs specific for chromatin, decrease ([1]; CTX 50 mg/kg once weekly ip) | levels of spleen plasma cells (plasma cells; cyclophosphamide 50 mg/kg once weekly ip) | anti-smith antigen ANAs ([2]; CTX 50 mg/kg once weekly ip)
1 | CN1CCN(c2cccc(Nc3nc4c(-c5ccc(S(C)(=O)=O)cc5)cccn4n3)c2)CC1 [COMPOUND A, [8-(4-methanesulfonyl-phenyl)-[1,2,4]triazolo[1,5-a]pyridin-2-yl]-[3-(4-methyl-piperazin-1-yl)-phenyl]-amine] | 97.4% | 100% | 57.6% | 52.9% | significantly reduced | overt toxicity was not observed | 51.4% | 52.5% |  |  | 
2 | O=P1(N(CCCl)CCCl)NCCCO1 (centres unmarked) [CTX, cyclophosphamide, reference compound] |  |  |  |  |  |  |  |  | 100% | the decrease was not significant | significantly reduced
